Measurements taken from patent publication US5162218A, “Conjugated polypeptides and methods for their preparation” (The Regents of the University of California, priority 1991, dated 1992).
pKi: −log10 of the molar value.

Experiments:
[1] = molecular target: T1, MOPC315 IgA Fab fragment, thiolated Fab labeled with 2 (Fab-SH, thiol tethered at residue 52H of the heavy chain) (Mus musculus, UniProt P01729+P01822); assay: Ester cleavage (thiolysis) assay, fluorometric release of coumarin; type: biochemical
T1 construct: Fab fragment, generated by treating the reduced and alkylated IgA with papain; made in house
T1 sequence (P01822 19-137): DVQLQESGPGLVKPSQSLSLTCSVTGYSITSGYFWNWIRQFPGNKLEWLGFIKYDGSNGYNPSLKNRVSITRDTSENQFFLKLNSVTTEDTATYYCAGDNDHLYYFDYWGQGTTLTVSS
T1 sequence (P01729 20-129): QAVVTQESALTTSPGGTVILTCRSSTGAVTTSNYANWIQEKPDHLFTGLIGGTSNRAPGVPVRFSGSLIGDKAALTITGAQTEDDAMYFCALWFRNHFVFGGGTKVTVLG
T1 sequence (P01878 1-100 partner limits assumed): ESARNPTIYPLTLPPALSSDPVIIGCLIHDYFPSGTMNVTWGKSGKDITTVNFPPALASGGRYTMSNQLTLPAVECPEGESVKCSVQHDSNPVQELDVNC
T1 sequence (P01844 whole entry partner, the tested form may be a part): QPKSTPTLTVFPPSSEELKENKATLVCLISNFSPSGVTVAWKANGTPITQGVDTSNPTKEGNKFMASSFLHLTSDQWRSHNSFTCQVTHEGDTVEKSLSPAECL
Procedure: (§1) Cleavage of DNP coumarin esters 14 and 15 by the thiol-containing antibodies was assayed in the presence and absence of 0.1 μM NaCl, 50 mM sodium phosphate, pH 7.0, with 24 μM dithiothreitol at 10° C. The release of free coumarin was quantitated fluorometrically, exciting at 355 nm and measuring emission at 455 nm. The S-thiopyridyl Fab was first dialyzed against assay buffer, 30 min. prior to the assays, an aliquot of the thiopyridyl Fab (0.15 mg in 0.19 ml) was reduced with 3.8 mM dithiothreitol at 20° C. For each assay, reduced, thiolated Fab (15 μg in 18.8 μl) was diluted with assay buffer (2.95 ml) so that the net concentrations of thiolated Fab and of dithiothreitol were 0.1 μM and 24 μM, respectively. After equilibrating, the substrate was added (30 μl of a stock solution in acetonitrile) and the solution mixed for 10 sec. before monitoring fluorescence change. Antibody rates were corrected by subtracting the rate of cleavage in the absence of Fab.
(§2) The reaction kinetics are consistent with the formation of a Michaelis complex (FIG. 6). […] Neither the uncleaved affinity-labeled antibody nor the iodoacetamide-alkylated antibody accelerated the rate of the thiolysis reaction above the background rate. The stoichiometry of product release corresponded to 1.0 coumarin to 1.0 Fab-SH. […]

MOPC315 IgA Fab fragment = molecular target: T2, MOPC315 IgA Fab fragment (Mus musculus, UniProt P01729+P01822+P01844+P01878); assay: Affinity labeling of Fab (incorporation of cleavable affinity labels); type: binding; conditions: for label incorporated / % Fab labeled (without DNP-glycine): Fab 10 μM; for label incorporated: 1.5 or 1.3 equivalents of label, 37° C.; for % Fab labeled (without DNP-glycine): 1.5 equivalents aldehyde plus NaCNBH3, pH 7.0, 37° C., 20 hours, or 1.3 equivalents α-bromoketone, pH 9.0, 37° C., 16 hours; for % Fab labeled (with DNP-glycine): as without, in the presence of 10 mM competitive inhibitor DNP-glycine; for non-specific labeling: in the presence of 10 mM DNP-glycine
T2 construct: Fab fragment, generated by treating the reduced and alkylated IgA with papain; made in house
T2 sequence (P01822+P01878 fused): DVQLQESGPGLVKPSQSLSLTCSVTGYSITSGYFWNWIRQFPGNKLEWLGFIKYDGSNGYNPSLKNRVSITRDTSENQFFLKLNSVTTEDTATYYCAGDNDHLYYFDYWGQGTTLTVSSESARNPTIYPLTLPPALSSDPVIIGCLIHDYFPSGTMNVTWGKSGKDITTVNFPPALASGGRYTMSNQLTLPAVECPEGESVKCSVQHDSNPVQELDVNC
T2 sequence (P01729+P01844 fused): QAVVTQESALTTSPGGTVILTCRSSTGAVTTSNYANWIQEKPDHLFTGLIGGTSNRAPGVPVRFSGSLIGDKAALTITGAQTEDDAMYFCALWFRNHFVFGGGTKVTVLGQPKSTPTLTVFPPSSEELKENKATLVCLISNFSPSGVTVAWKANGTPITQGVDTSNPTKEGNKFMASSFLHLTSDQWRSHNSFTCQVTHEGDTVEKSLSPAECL
Procedure: The strategy for introducing a thiol into the binding site of MOPC315 is outlined in FIG. 3. These steps were carried out with the Fab fragment, generated by treating the reduced and alkylated IgA with papain followed by affinity chromatography on DNP-coupled Sepharose 4B (Goetzl (1970) Biochemistry 9:1267). The Fab fragment (at 10 μM) was treated with either 1.5 equivalents of aldehydes 1 or 2 for one hour followed by 7.5 equivalents of NaCNBH3, in 0.2M sodium phosphate; pH 7.0, at 37° C. for 20 hours, or with 1.3 equivalents of α-bromoketones 3, 4, or 5 in 0.1M sodium bicarbonate, pH 9.0; at 37° C. for 16 hours. In both cases, the labeled Fab was purified by chromatography on Sephadex G-50 in 0.1M sodium phosphate, pH 7.3, and, after lyophilization, subsequent affinity chromatography on DNP-coupled Sepharose 4B (Goetzl, supra.) to remove unlabeled or non-specifically labeled Fab. The extent of derivatization was quantitated spectrophotometrically (for labels 1 and 2, λmax =360 nm, , ε=12,800 M^-1 cm^-1) and additionally, for labels 1 and 2, by incorporation of tritium from NaCNB^3 H3 (using 12 mCi/millimole NaCNB^3 H3). […] In both cases, less than 10% non-specific labeling occurred in the presence of 10 mM of the competitive inhibitor DNP-glycine.

[2] = molecular target: T3, MOPC315 IgA Fab fragment, thiolated Fab labeled with bromoketone 4 (thiol tethered at tyrosine 34L) (Mus musculus, UniProt P01729+P01822); assay: Ester cleavage assay; type: biochemical
T3 construct: Fab fragment, generated by treating the reduced and alkylated IgA with papain; made in house
T3 sequence (P01822 19-137): as the sequence (P01822 19-137) above
T3 sequence (P01729 20-129): as the sequence (P01729 20-129) above
T3 sequence (P01878 1-100 partner limits assumed): as the sequence (P01878 1-100 partner limits assumed) above
T3 sequence (P01844 whole entry partner, the tested form may be a part): as the sequence (P01844 whole entry partner, the tested form may be a part) above
Procedure: as §1, §2

[3] = molecular target: T4, MOPC315 fluorescein-Fab adduct (S-thiopyridyl Fab labeled with 2, derivatized with N-fluoresceinthioureido-2-mercaptoethylamine) (Mus musculus, UniProt P01729+P01822); assay: Fluorescence quenching binding assay; conditions: 0.10 μM adduct, 50 mM NaCl, 50 mM sodium phosphate, pH 7.0, 10° C.; read-out: association constant (converted)
T4 construct: Fab fragment, generated by treating the reduced and alkylated IgA with papain; made in house
T4 sequence (P01822 19-137): as the sequence (P01822 19-137) above
T4 sequence (P01729 20-129): as the sequence (P01729 20-129) above
T4 sequence (P01878 1-100 partner limits assumed): as the sequence (P01878 1-100 partner limits assumed) above
T4 sequence (P01844 whole entry partner, the tested form may be a part): as the sequence (P01844 whole entry partner, the tested form may be a part) above
Procedure: FIG. 7 illustrates the results of a fluorescence quenching binding assay for DNP-glycine with fluorescein-Fab adduct (.quadrature.) versus control with fluorescein plus underivatized Fab ( ). Fluorescence quenching experiments were carried at 10° C. using 492 nm for excitation and measuring emission at 521 nm. The fluorescein-Fab adduct was diluted with assay buffer (above) to 0.10 μM. Aliquots of 2,4-DNP-glycine were added and, after mixing, the fluorescence observed. Free N-fluoresceinthioureido-2-mercapthoethylamine and underivatized Fab, each at 0.10 μM, were treated in a similar experiment.
(§3) Fluorescence quenching experiments were carried out at 10° C. using 492 nm for excitation and measuring emission at 521 nm. The fluorescein-Fab adduct was diluted wi.:h assay buffer (50 mM NaCl. 50 mM sodium phosphate, pH 7.0) to 0.10 μM. Aliquots of 2,4-DNP-glycinewere added and, after mixing, the fluorescence observed. The association constant of DNP-glycine to the fluorescein-Fab adduct was determined to be 3.0×10^5 M^-1, almost identical to the KA of DNP-glycine to underivatized MOPC 315, 2.0×10^5 M^-1.

[4] = molecular target: IgA MOPC315, underivatized; assay: Association of DNP ligands with the underivatized antibody; type: binding; conditions: underivatized MOPC 315
Procedure: The following studies were carried out on the IgA MOPC315, which binds substituted 2,4-dinitrophenyl (DNP) ligands with association constants ranging from 5×10^4 to 10^6 M^-1 (Haselkorn et al. (1974) Biochemistry 13:2210). Although a three-dimensional structure is not available, the antibody combining site has been characterized by spectroscopic methods (UV, fluorometry, NMR), chemical modification, and amino acid sequencing of the variable region. Moreover, earlier affinity-labeling studies with reagents of varying structures (Givol and Wilcheck (1977) Meth. Enzy. 46:479; Givol et al. (1971) Biochemistry 10:3461; and Strausbauch et al. (1971) Biochemistry 10:4342) defined a number of reactive amino acid side chains in the vicinity of the combining site.
as §3

SMILES | % Fab labeled (without DNP-glycine) (MOPC315 IgA Fab fragment) [%] | % Fab labeled (with DNP-glycine) (MOPC315 IgA Fab fragment) [%] | other results
O=C(CCNc1ccc([N+](=O)[O-])cc1[N+](=O)[O-])Oc1ccc2ccc(=O)oc2c1 [ester 14, (N-DNP)-3-Aminopropanoic acid 7-hydroxycoumarin ester] |  |  | acceleration of cleavage, factor over the cleavage reaction in equimolar dithiothreitol ([1]; pH 7.0, 10° C.): 6×10^4
O=CCCCSSCCNc1ccc([N+](=O)[O-])cc1[N+](=O)[O-] [compound 2] | 95 | 10 | label incorporated (MOPC315 IgA Fab fragment): over 90%; non-specific labeling (MOPC315 IgA Fab fragment): less than 10%
CC(=O)Oc1ccc([N+](=O)[O-])cc1[N+](=O)[O-] [DNP-acetate] |  |  | hydrolysis of ester by thiolated Fab [2]: did not hydrolyze
O=C(CBr)CCSc1ccc([N+](=O)[O-])cc1[N+](=O)[O-] [compound 3, 1-Bromo-2-oxo-4-(S-DNP)-mercaptobutane] | 0 | 0 | 
O=C(CBr)CCCSc1ccc([N+](=O)[O-])cc1[N+](=O)[O-] [compound 4, 1-Bromo-2-oxo-5-(S-DNP)-mercaptopentane] | 85 | 0 | label incorporated (MOPC315 IgA Fab fragment): over 90%; non-specific labeling (MOPC315 IgA Fab fragment): less than 10%
O=CCCSSCCNc1ccc([N+](=O)[O-])cc1[N+](=O)[O-] [compound 1, (N-2,4-Dinitrophenyl)-2-aminoethyl 3-oxopropyl disulfide] | 22 | 5 | 
O=C(O)CNc1ccc([N+](=O)[O-])cc1[N+](=O)[O-] [DNP-glycine] |  |  | pKi [1]: 5.10; Kd [3]: 3.33 µM; KA [4]: 200000 M⁻¹
O=C(CBr)CCCCSc1ccc([N+](=O)[O-])cc1[N+](=O)[O-] [compound 5, 1-Bromo-2=oxo-6-(S-DNP)-mercaptohexane] | 15 | 0 | 
